Source: patent US20110257116A1, “BIOSURFACTANT-CONTAINING SKIN CARE COSMETIC AND SKIN ROUGHNESS-IMPROVING AGENT” (National Institute Of Advanced Industrial Science And …, priority 2005, published 2011)
“Also recorded” adds a separate entry of the source.

Legend:
[1] = system: three-dimensional skin model (Test Skin LSE-002 or 003; Toyobo) treated with SDS; assay: Skin roughness model: three-dimensional skin model defatted with SDS, cell viability by MTT (absorbance of formazan); assay type: cell-based; conditions: for cell viability (absorbance of formazan): dissolved in olive oil, added on Test Skin treated with 1% SDS, left overnight, MTT kit
[2] = Dispersion stability test in water (absorbance at 650 nm); assay type: physicochemical; conditions: FIG. 6; for change in turbidity of the water suspension: after 6 hours
Experimental: MEL-B or MEL-C at a concentration of 10 mg/mL was added to water, stirred and suspended. Its absorbance at 650 nm was measured.

| Substance | skin roughness improvement compared with MEL-A ([1]; FIG. 4 legend, three-dimensional skin model treated with SDS, viability) | cell viability (absorbance of formazan) [1] | change in turbidity of the water suspension [2] | dispersion stability ([2]; 10 mg/mL in water, stirred and suspended, absorbance at 650 nm) |
| --- | --- | --- | --- | --- |
| mannosylerythritol lipid B [MEL-B] | increased skin roughness improvement over MEL-A | increased in a MEL-B-concentration-dependent manner | little observable change in turbidity |  |
| mannosylerythritol lipid C [MEL-C] |  | increased in a MEL-C-concentration-dependent manner | little observable change in turbidity | particularly excellent in dispersion stability; also recorded: more excellent than MEL-A in water dispersion stability |
| mannosylerythritol lipid A [MEL-A] |  | increased in a MEL-A-concentration-dependent manner |  |  |
